Earlier results on 2 compounds are cited in patent publication US20220347144A1, “COMPOSITIONS AND METHODS FOR PREVENTING AND/OR REDUCING WEIGHT GAIN AND ASSOCIATED CONDITIONS” (University of Virginia Patent Foundation, priority 2019, published 2022).

The subject of series [1] is rats. Particulars: in rapeseed oil, Hulan et al., 1977; cited from earlier work.
For series [2], the system named is rats. Particulars: triglyceride form, Kojima et al., 2010; cited from earlier work.

Consider `CCCCCCCC/C=C\CCCCCCCCCCCC(=O)O` [erucic acid, (Z)-docos-13-enoic acid], for which the heart lesions result in the series on rats [1] is reported as “implicated in causing heart lesions”. In the case of `CCCCCCCCCCCCCCCCCCCCCC(=O)O` [behenic acid], in the series with rats [2], the obesity result is “prevented obesity”.
